Measurements reported in PubChem BioAssay AID1259407 (Chemical Carcinogenesis Research Information System (CCRIS), 2018).
Activity calls are given as the source filed them. No rule for the calls is given here.

Test system: CCRIS mutagenicity, Ames/micronucleus/aberration tests
Experiment: CCRIS mutagenicity studies
[1] = Test System: AMES SALMONELLA TYPHIMURIUM, Strain/Indicator: TA98, Metabolic Activation: NONE, Method: PREINCUBATION
[2] = Test System: AMES SALMONELLA TYPHIMURIUM, Strain/Indicator: TA98, Metabolic Activation: RAT, LIVER, S-9, PCB, Method: PREINCUBATION
[3] = Test System: AMES SALMONELLA TYPHIMURIUM, Strain/Indicator: TA100, Metabolic Activation: NONE, Method: PREINCUBATION
[4] = Test System: AMES SALMONELLA TYPHIMURIUM, Strain/Indicator: TA100, Metabolic Activation: RAT, LIVER, S-9, PCB, Method: PREINCUBATION
[5] = Test System: AMES SALMONELLA TYPHIMURIUM, Strain/Indicator: TA102, Metabolic Activation: NONE, Method: PREINCUBATION
[6] = Test System: AMES SALMONELLA TYPHIMURIUM, Strain/Indicator: TA98, Metabolic Activation: NONE, Method: STANDARD PLATE
[7] = Test System: AMES SALMONELLA TYPHIMURIUM, Strain/Indicator: TA98, Metabolic Activation: RAT, LIVER, S-9, AROCLOR 1254, Method: STANDARD PLATE
[8] = Test System: AMES SALMONELLA TYPHIMURIUM, Strain/Indicator: TA100, Metabolic Activation: NONE, Method: STANDARD PLATE
[9] = Test System: AMES SALMONELLA TYPHIMURIUM, Strain/Indicator: TA100, Metabolic Activation: RAT, LIVER, S-9, AROCLOR 1254, Method: STANDARD PLATE

Compound: C=C1C[C@@]23CC[C@H]4[C@@](C)(CCC[C@@]4(C)C(=O)O)[C@@H]2CC[C@]1(O)C3
- mutagenic call (Test System: AMES SALMONELLA TYPHIMURIUM, Strain/Indicator: TA97, Metabolic Activation: NONE, Method: PREINCUBATION): inactive; negative
- mutagenic call (Test System: AMES SALMONELLA TYPHIMURIUM, Strain/Indicator: TA97, Metabolic Activation: RAT, LIVER, S-9, PCB, Method: PREINCUBATION): inactive; negative
- mutagenic call [1]: inactive; negative
- mutagenic call [2]: inactive; negative
- mutagenic call (Test System: AMES SALMONELLA TYPHIMURIUM, Strain/Indicator: TA98, Metabolic Activation: RAT, LIVER, S-9, SODIUM PHENOBARBITAL AND 5,6-BENZOFLAVONE, Method: PREINCUBATION): inactive; negative
- mutagenic call [3]: inactive; negative
- mutagenic call [4]: inactive; negative
- mutagenic call (Test System: AMES SALMONELLA TYPHIMURIUM, Strain/Indicator: TA100, Metabolic Activation: RAT, LIVER, S-9, SODIUM PHENOBARBITAL AND 5,6-BENZOFLAVONE, Method: PREINCUBATION): inactive; negative
- mutagenic call [5]: inactive; negative
- mutagenic call (Test System: AMES SALMONELLA TYPHIMURIUM, Strain/Indicator: TA102, Metabolic Activation: RAT, LIVER, S-9, PCB, Method: PREINCUBATION): inactive; negative
- mutagenic call (Test System: AMES SALMONELLA TYPHIMURIUM, Strain/Indicator: TA104, Metabolic Activation: NONE, Method: PREINCUBATION): inactive; negative
- mutagenic call (Test System: AMES SALMONELLA TYPHIMURIUM, Strain/Indicator: TA104, Metabolic Activation: RAT, LIVER, S-9, PCB, Method: PREINCUBATION): inactive; negative
- mutagenic call (Test System: AMES SALMONELLA TYPHIMURIUM, Strain/Indicator: TM677, Metabolic Activation: NONE, Method: PREINCUBATION): inactive; negative
- mutagenic call (Test System: AMES SALMONELLA TYPHIMURIUM, Strain/Indicator: TM677, Metabolic Activation: RAT, LIVER, MICROSOMES, AROCLOR 1254, Method: SUSPENSION/PLATE): active; positive
- mutagenic call (Test System: AMES SALMONELLA TYPHIMURIUM, Strain/Indicator: TM677, Metabolic Activation: RAT, LIVER, S-9, AROCLOR 1254, Method: PREINCUBATION): active; positive
- mutagenic call (Test System: AMES SALMONELLA TYPHIMURIUM, Strain/Indicator: TM677, Metabolic Activation: RAT, LIVER, S-9, AROCLOR 1254, Method: SUSPENSION/PLATE): active; positive

Compound: CN(C)c1ccc(-c2ccc(N(C)C)cc2)cc1
- mutagenic call [1]: inactive; negative
- mutagenic call [6]: inactive; negative
- mutagenic call (Test System: AMES SALMONELLA TYPHIMURIUM, Strain/Indicator: TA98, Metabolic Activation: RAT LIVER S-9, AROCLOR 1254, Method: PREINCUBATION): active; positive
- mutagenic call [7]: active; positive
- mutagenic call [3]: inactive; negative
- mutagenic call [8]: inactive; negative
- mutagenic call (Test System: AMES SALMONELLA TYPHIMURIUM, Strain/Indicator: TA100, Metabolic Activation: RAT LIVER S-9, AROCLOR 1254, Method: PREINCUBATION): inactive; negative
- mutagenic call [9]: inactive; negative

Compound: COc1ccccc1NC(=O)C(N=Nc1ccc(-c2ccc(N=NC(C(C)=O)C(=O)Nc3ccccc3OC)c(Cl)c2)cc1Cl)C(C)=O (configuration not stated)
- mutagenic call (Test System: AMES SALMONELLA TYPHIMURIUM, Strain/Indicator: TA98, Metabolic Activation: HAMSTER, LIVER, S-9, Method: PREINCUBATION (PRIVAL METHOD)): inactive; negative

Compound: Nc1nc2ncc(CNc3ccc(C(=O)N[C@@H](CCC(=O)O)C(=O)O)cc3)nc2c(=O)[nH]1
- mutagenic call (Test System: AMES SALMONELLA TYPHIMURIUM, Strain/Indicator: TA97A, Metabolic Activation: NONE, Method: PREINCUBATION): inactive; negative
- mutagenic call (Test System: AMES SALMONELLA TYPHIMURIUM, Strain/Indicator: TA97A, Metabolic Activation: RAT, LIVER, S-9, AROCLOR 1254, Method: PREINCUBATION): inactive; negative
- mutagenic call [5]: inactive; negative
- mutagenic call (Test System: AMES SALMONELLA TYPHIMURIUM, Strain/Indicator: TA102, Metabolic Activation: RAT, LIVER, S-9, AROCLOR 1254, Method: PREINCUBATION): inactive; negative

Compound: OC1Cc2cc3cccc4ccc5ccc1c2c5c43 (configuration not stated)
- mutagenic call (Test System: AMES SALMONELLA TYPHIMURIUM, Strain/Indicator: TA98, Metabolic Activation: HUMAN, LIVER, CYTOSOL, PAPS, Method: PREINCUBATION): active; positive

Compound: CCCCN(CCC(C)=O)N=O
- mutagenic call (Test System: AMES SALMONELLA TYPHIMURIUM, Strain/Indicator: TA1535, Metabolic Activation: RAT, LIVER, S-9, KC500 OR PHENOBARBITAL, Method: LIQUID SUSPENSION): active; positive

Compound: NNc1nncc2cnccc12
- mutagenic call [1]: active; positive
- mutagenic call [2]: active; positive
- mutagenic call [3]: active; positive
- mutagenic call [4]: active; positive

Compound: O=C1C=CC(=O)CC(=O)C1
- mutagenic call (Test System: AMES SALMONELLA TYPHIMURIUM, Strain/Indicator: TA98, Metabolic Activation: HAMSTER, LIVER, S-9, AROCLOR 1254, Method: STANDARD PLATE): inactive; negative
- mutagenic call [6]: inactive; negative
- mutagenic call [7]: inactive; negative
- mutagenic call (Test System: AMES SALMONELLA TYPHIMURIUM, Strain/Indicator: TA100, Metabolic Activation: HAMSTER, LIVER, S-9, AROCLOR 1254, Method: STANDARD PLATE): inactive; negative
- mutagenic call [8]: inactive; negative
- mutagenic call [9]: inactive; negative
- mutagenic call (Test System: AMES SALMONELLA TYPHIMURIUM, Strain/Indicator: TA1535, Metabolic Activation: HAMSTER, LIVER, S-9, AROCLOR 1254, Method: STANDARD PLATE): inactive; negative
- mutagenic call (Test System: AMES SALMONELLA TYPHIMURIUM, Strain/Indicator: TA1535, Metabolic Activation: NONE, Method: STANDARD PLATE): inactive; negative
- mutagenic call (Test System: AMES SALMONELLA TYPHIMURIUM, Strain/Indicator: TA1535, Metabolic Activation: RAT, LIVER, S-9, AROCLOR 1254, Method: STANDARD PLATE): inactive; negative
- mutagenic call (Test System: AMES SALMONELLA TYPHIMURIUM, Strain/Indicator: TA1537, Metabolic Activation: HAMSTER, LIVER, S-9, AROCLOR 1254, Method: STANDARD PLATE): inactive; negative
- mutagenic call (Test System: AMES SALMONELLA TYPHIMURIUM, Strain/Indicator: TA1537, Metabolic Activation: NONE, Method: STANDARD PLATE): inactive; negative
- mutagenic call (Test System: AMES SALMONELLA TYPHIMURIUM, Strain/Indicator: TA1537, Metabolic Activation: RAT, LIVER, S-9, AROCLOR 1254, Method: STANDARD PLATE): inactive; negative
- mutagenic call (Test System: AMES SALMONELLA TYPHIMURIUM, Strain/Indicator: TA1538, Metabolic Activation: HAMSTER, LIVER, S-9, AROCLOR 1254, Method: STANDARD PLATE): inactive; negative
- mutagenic call (Test System: AMES SALMONELLA TYPHIMURIUM, Strain/Indicator: TA1538, Metabolic Activation: NONE, Method: STANDARD PLATE): inactive; negative
- mutagenic call (Test System: AMES SALMONELLA TYPHIMURIUM, Strain/Indicator: TA1538, Metabolic Activation: RAT, LIVER, S-9, AROCLOR 1254, Method: STANDARD PLATE): inactive; negative
- mutagenic call (Test System: MOUSE LYMPHOMA, Strain/Indicator: L5178Y (TK+/TK-), Metabolic Activation: NONE, Method: SUSPENSION/PLATE): active; positive. reevaluation of results: positive
- mutagenic call (Test System: MOUSE LYMPHOMA, Strain/Indicator: L5178Y (TK+/TK-), Metabolic Activation: RAT, LIVER, S-9, AROCLOR 1254, Method: SUSPENSION/PLATE): inactive; negative. reevaluation of results: negative
